Source: patent US8093231B2, “Sulfonylethyl phosphorodiamidates” (Telik, Inc., priority 2004, dated 2012)

Experiments:
Type in all cases: cell-based, human
[1] = tested on: LNCap (prostate carcinoma); assay: Cytotoxicity/growth inhibition assay, LNCap; conditions: LNCap cells, 4 days culture, CellTiter-Glo, 0.1-200 μM tested; read-out: IC50 (LNCap)
Source text: (§1) The human cancer cell lines DLD-1 (colorectal adenocarcinoma), LNCap (prostate carcinoma), and OVCAR-3 (ovarian carcinoma) were obtained from the American Type Culture Collection, Manassas, Va., U.S.A., and HL-60 (promyeloid myelocytic leukemia), MX-1 (breast carcinoma), P388, and P388ADR from the National Cancer Institute, Bethesda, Md., U.S.A. Carboplatin, doxorubicin, and melphalan were obtained from Sigma-Aldrich Chemical Company, St. Louis, Mo., U.S.A. The CellTiter-Glo assay kit was obtained from Promega Corporation, Madison, Wis., U.S.A., and the Cellular DNA Cytometric Analysis Reagent Kit from Roche Diagnostics Corporation, Indianapolis, Ind., U.S.A. Lambda DNA was obtained from New England Biolabs, Beverly, Mass., U.S.A., and SYBR-Gold from Molecular Probes, Inc., Eugene, Oreg., U.S.A. The DNeasy Tissue Kit was obtained from Qiagen Inc., Valencia, Calif., U.S.A., and AmpliTaq Gold DNA polymerase and PCR reagents from Applied Biosystems, Foster City, Calif., U.S.A. All products were used in accordance with manufacturer's directions. All assays were conducted in triplicate wells, with dimethyl sulfoxide (DMSO) solvent control. The extent of cell growth was expressed as a percentage of the signal from the solvent control wells.
(§2) Log-phase cells were trypsinized, collected by centrifugation, and resuspended in a small volume of fresh medium, and the density of viable cells was determined following Trypan Blue staining. Cells were diluted in fresh media (3×10^3 cells/mL for MX-1, 3×10^3 cells/mL for DLD-1, and 6×10^3 cells/mL for LNCap cells), the test compounds (concentrations between 0.1 and 200 μM, dissolved in DMSO, 50 μL) added immediately after dilution to achieve a final DMSO concentration of 0.5%, then the suspensions added at 150 μL/well to 96-well plates, and incubated for several hours to allow attachment in the case of adherent cells. The cells were cultured for approximately three doubling times (3 days for MX-1 and 4 days for DLD-1 and LNCap). The cells were then collected by centrifugation, and 100 μL of the culture supernatant was replaced by the CellTiter-Glo reagent. After incubation for 15 minutes at room temperature, and the plate was read with a luminometer.

MX-1 (breast carcinoma) = assay: Cytotoxicity/growth inhibition assay, MX-1; conditions: MX-1 cells, 3 days culture, CellTiter-Glo, 0.1-200 μM tested; read-out: IC50 (MX-1)
Source text: as §1, §2

[2] = tested on: DLD-1 (colorectal adenocarcinoma); assay: Cytotoxicity/growth inhibition assay, DLD-1; conditions: DLD-1 cells, 4 days culture, CellTiter-Glo, 0.1-200 μM tested; read-out: IC50 (DLD-1)
Source text: as §1, §2

SMILES	IC50 [1] [µM]	IC50 (MX-1 (breast carcinoma)) [µM]	IC50 [2] [µM]
CC(C)(C(N)C(=O)O)S(=O)(=O)CCOP(=O)(N(CCCl)CCCl)N(CCCl)CCCl (stereo not drawn) [Compound 75A]	185	33.1	7.6
CC(C)(C(N)C(=O)O)S(=O)(=O)CCOP(=O)(N(CCCl)CCCl)N(CCCl)CCCl (stereo not drawn) [Compound 76A]	99.7	23.2	6.6
N[C@@H](CCS(=O)(=O)CCOP(=O)(N(CCCl)CCCl)N(CCCl)CCCl)C(=O)O [Compound 77A]	140	21.3	8
NC(=O)[C@@H](N)CS(=O)(=O)CCOP(=O)(N(CCCl)CCCl)N(CCCl)CCCl [Compound 78A]	≥ 200	18.8	6.3
COC(=O)[C@H](CS(=O)(=O)CCOP(=O)(N(CCCl)CCCl)N(CCCl)CCCl)NS(=O)(=O)c1ccccc1 [Compound 80A]	80.2	27.1	10.7
COC(=O)[C@H](CS(=O)(=O)CCOP(=O)(N(CCCl)CCCl)N(CCCl)CCCl)NS(=O)(=O)c1ccc(Cl)cc1 [Compound 81A]	86.6	33.3	6.9
N[C@@H](CS(=O)(=O)CCOP(=O)(N(CCCl)CCCl)N(CCCl)CCCl)C(=O)OCc1ccccc1 [Compound 82A]	59.8	27.9	7.7
CC(C)(C)OC(=O)N[C@@H](CS(=O)(=O)CCOP(=O)(N(CCCl)CCCl)N(CCCl)CCCl)C(=O)N1CCOCC1 [Compound 83A]	27.8	12.9	6.7
CC(C)NC(=O)[C@H](CS(=O)(=O)CCOP(=O)(N(CCCl)CCCl)N(CCCl)CCCl)NC(=O)OC(C)(C)C [Compound 84A]	29.6	10.6	6
CC(C)(C)OC(=O)N[C@@H](CS(=O)(=O)CCOP(=O)(N(CCCl)CCCl)N(CCCl)CCCl)C(=O)N1CCN(C(=O)c2ccco2)CC1 [Compound 85A]	41.1	11.8	8.8
CC(C)(C)OC(=O)N[C@@H](CS(=O)(=O)CCOP(=O)(N(CCCl)CCCl)N(CCCl)CCCl)C(=O)NCCO [Compound 86A]	73.5	25.1	10.3
N[C@@H](CS(=O)(=O)CCOP(=O)(N(CCCl)CCCl)N(CCCl)CCCl)C(=O)N1CCOCC1 [Compound 87A]	136	19.5	9.7
N[C@@H](CS(=O)(=O)CCOP(=O)(N(CCCl)CCCl)N(CCCl)CCCl)C(=O)NCCO [Compound 88A]	126	17.9	9.5
CC(C)NC(=O)[C@@H](N)CS(=O)(=O)CCOP(=O)(N(CCCl)CCCl)N(CCCl)CCCl [Compound 89A]	140	22.2	8.5
N[C@@H](CS(=O)(=O)CCOP(=O)(N(CCCl)CCCl)N(CCCl)CCCl)C(=O)N1CCN(C(=O)c2ccco2)CC1 [Compound 90A]	≥ 200	23.8	10.4
O=C(NCc1ccccc1)[C@H](CS(=O)(=O)CCOP(=O)(N(CCCl)CCCl)N(CCCl)CCCl)NS(=O)(=O)c1ccccc1 [Compound 91A]	33.3	10.7	4.8
CC(C)NC(=O)[C@H](CS(=O)(=O)CCOP(=O)(N(CCCl)CCCl)N(CCCl)CCCl)NS(=O)(=O)c1ccccc1 [Compound 92A]	36.1	14.7	7.3
O=C(c1ccco1)N1CCN(C(=O)[C@H](CS(=O)(=O)CCOP(=O)(N(CCCl)CCCl)N(CCCl)CCCl)NS(=O)(=O)c2ccccc2)CC1 [Compound 93A]	59.1	19.3	13.2
N[C@@H](CS(=O)(=O)CCOP(=O)(N(CCCl)CCCl)N(CCCl)CCCl)C(=O)NCCC(=O)O [Compound 94A]	≥ 200	22.8	37.5
CS(=O)(=O)N[C@@H](CS(=O)(=O)CCOP(=O)(N(CCCl)CCCl)N(CCCl)CCCl)C(=O)NCc1ccccc1 [Compound 95A]	46.6	21.3	9.9
CS(=O)(=O)N[C@@H](CS(=O)(=O)CCOP(=O)(N(CCCl)CCCl)N(CCCl)CCCl)C(=O)N1CCOCC1 [Compound 96A]	81	30.2	9.6

SMILES	IC50 [1] [µM]	IC50 (MX-1 (breast carcinoma)) [µM]	IC50 [2] [µM]
CC(C)NC(=O)[C@H](CS(=O)(=O)CCOP(=O)(N(CCCl)CCCl)N(CCCl)CCCl)NS(C)(=O)=O [Compound 97A]	57.8	26.8	8.5
CS(=O)(=O)N[C@@H](CS(=O)(=O)CCOP(=O)(N(CCCl)CCCl)N(CCCl)CCCl)C(=O)N1CCN(C(=O)c2ccco2)CC1 [Compound 98A]	144	27.9	9.9
N#Cc1ccc(S(=O)(=O)N[C@@H](CS(=O)(=O)CCOP(=O)(N(CCCl)CCCl)N(CCCl)CCCl)C(=O)NCc2ccccc2)cc1 [Compound 99A]	33.5	16.2	6.4
N#Cc1ccc(S(=O)(=O)N[C@@H](CS(=O)(=O)CCOP(=O)(N(CCCl)CCCl)N(CCCl)CCCl)C(=O)N2CCOCC2)cc1 [Compound 100A]	61.4	16.2	7.4
CC(C)NC(=O)[C@H](CS(=O)(=O)CCOP(=O)(N(CCCl)CCCl)N(CCCl)CCCl)NS(=O)(=O)c1ccc(C#N)cc1 [Compound 101A]	57	14.8	7.2
N#Cc1ccc(S(=O)(=O)N[C@@H](CS(=O)(=O)CCOP(=O)(N(CCCl)CCCl)N(CCCl)CCCl)C(=O)N2CCN(C(=O)c3ccco3)CC2)cc1 [Compound 102A]	81.6	19.9	9.2
O=C(O)[C@H](CS(=O)(=O)CCOP(=O)(N(CCCl)CCCl)N(CCCl)CCCl)NS(=O)(=O)c1ccccc1 [Compound 103A]	151	18.2	14.5
CS(=O)(=O)N[C@@H](CS(=O)(=O)CCOP(=O)(N(CCCl)CCCl)N(CCCl)CCCl)C(=O)O [Compound 104A]	≥ 200	25.3	20
O=C(O)[C@H](CS(=O)(=O)CCOP(=O)(N(CCCl)CCCl)N(CCCl)CCCl)NS(=O)(=O)c1ccc(Cl)cc1 [Compound 105A]	≥ 200	31.6	23.1
O=P(OCCS(=O)(=O)c1ccccc1Cl)(N(CCCl)CCCl)N(CCCl)CCCl [Compound 106A]	18.3	4.2	3.7
Cc1ccc(S(=O)(=O)CCOP(=O)(N(CCCl)CCCl)N(CCCl)CCCl)cc1 [Compound 107A]	18.1	2.5	1.6
O=P(OCCS(=O)(=O)c1ccc(Cl)cc1)(N(CCCl)CCCl)N(CCCl)CCCl [Compound 108A]	6.4	3.3	2.3
O=P(OCCS(=O)(=O)c1ccc(C(F)(F)F)cc1)(N(CCCl)CCCl)N(CCCl)CCCl [Compound 109A]	7.7	1.1	0.6
Cc1cccc(S(=O)(=O)CCOP(=O)(N(CCCl)CCCl)N(CCCl)CCCl)c1 [Compound 110A]	20.5	2.7	1.3
O=P(OCCS(=O)(=O)c1ccc(F)cc1)(N(CCCl)CCCl)N(CCCl)CCCl [Compound 111A]	20.1	1.3	0.6
O=P(OCCS(=O)(=O)c1ccc(Cl)c(Cl)c1)(N(CCCl)CCCl)N(CCCl)CCCl [Compound 112A]	6.3	1	0.8
O=P(OCCS(=O)(=O)c1ccc(-c2ccccc2)cc1)(N(CCCl)CCCl)N(CCCl)CCCl [Compound 113A]	18.4	10.9	2.2
CC(C)(C)c1ccc(S(=O)(=O)CCOP(=O)(N(CCCl)CCCl)N(CCCl)CCCl)cc1 [Compound 114A]	8.2	4.7	1.9
COc1ccc(S(=O)(=O)CCOP(=O)(N(CCCl)CCCl)N(CCCl)CCCl)cc1 [Compound 115A]	18.5	5.3	4.1
O=P(OCCS(=O)(=O)c1cccc(C(F)(F)F)c1)(N(CCCl)CCCl)N(CCCl)CCCl [Compound 116A]	6.6	3.1	2.2
